Measurements published in patent publication US20200016200A1, “MODULATING CYTOTOXIC CELL LYTIC GRANULE POSITIONING TO PROMOTE DIFFUSE KILLING IN CELLULAR THERAPIES” (Baylor College of Medicine, priority 2016, published 2020).
“Also recorded” adds a separate entry of the source.

Tests used:
[1] = tested on: CD19 CAR-bearing T cells; experiment: Live cell confocal microscopy of lytic granule positioning (LysoTracker Red); type: cell-based; details: for stimulation-induced lytic granule convergence: ciliobrevin D 50 μM vs DMSO, straight out of culture or 0.5 h post cytokine (IL-7, IL-15) re-addition
Method: (§1) FIG. 17. […] Live cell confocal microscopy of CD19 CAR-bearing T cells untreated or treated with ciliobrevin D (30 and 100 μM). Lytic granule positioning was tracked using LysoTracker Red. […] Quantitative analyses of lytic granule distance from the MTOC are shown as a feature of the degree of granule convergence in CD19 CAR-bearing T cells.
as §1, with “18.” for “17.”, “cells” for “cells untreated or”, “with DMSO or” for “with”, “(50” for “(30 and 100”, “Red. […] The culture medium for CD19 CAR T cells contains IL-7 and IL-15.” for “Red.”
(§2) Specifically, the inventors have shown convergence in CD19 CAR T cells, CD19 CAR NK cells, PSCA CAR T cells, GD2 CAR NKT cells, HER2 CART cells, and glypican CAR T cells (FIG. 15A). Using a measurement of mean granule distance from the MTOC, CAR cells have varying degrees of converged lytic granules (FIG. 15B).

[2] = tested on: eNK cells; experiment: Flow cytometry-based degranulation assay (CD107a); type: cell-based, human; details: eNK with K562 targets, 2 hours, vs DMSO
Method: (§3) FIGS. 13A-13E. The effect of ciliobrevin D on degranulation and the increase of bystander killing by NK cells. Flow cytometry-based degranulation assay of NK cells treated with ciliobrevin D or DMSO as vehicle control. 721.221 cells were used as targets for YTS cells and K562 cells were used as targets for NK92 and eNK cells. DMSO or ciliobrevin D-treated NK cells were mixed with their respective target cells and co-cultured at 37° C. for 2 hours in the presence of anti-CD107a antibody, GolgiStop (BD) and analyzed using flow cytometry. Numbers in the representative flow cytometry plots indicate the percentage of CD107a positive eNK (13A), YTS (13B), or NK92 (13C) cells. Standard 4-hour 51Cr cytotoxicity assay of NK cells treated with ciliobrevin D (100 μM) or DMSO control. NK resistant Raji cells were used as innocent bystander cells. […] Bystander killing of Raji cells by YTS (13D, red) and NK92 (13E, red) cells both increased with ciliobrevin D treatment. Representative experiments from three independent experiments for YTS and NK92 cells were shown.
(§4) YTS-CD16, NK92-CD16 and eNK cells were labeled with CellTrace CFSE for 10 min at room temperature. S2 and S2-IC1 cells were pre-incubated with anti-S2 polyclonal IgG antibody at a final dilution of 1:1000 for 30 min at room temperature and washed three times. S2, S2-IgG, S2-IC1 and S2-IC1-IgG cells were then labeled with cell proliferation dye eFluor 670 for 5 min at room temperature. […] and 2×10^5 target cells were mixed in 200 μl complete R10 and incubated for 2 hours at 37° C. in the presence of anti-CD107a antibody and GolgiStop (BD), fixed with 1% paraformaldehyde in PBS and analyzed as described in flow-based conjugation assay.
(§5) Where applicable, YTS, NK92 and eNK cells were pretreated with […] ciliobrevin D (Millipore) for 30 min then washed. DMSO was used as the vehicle control for all inhibitor experiments. The inhibitor was also added into the co-culture with target cells.

[3] = tested on: NK92 cells; experiment: Flow cytometry-based degranulation assay (CD107a); type: cell-based, human; details: NK92 with K562 targets, 2 hours, vs DMSO
Method: as §3, §4, §5

[4] = tested on: YTS cells; experiment: Flow cytometry-based degranulation assay (CD107a); type: cell-based, human; details: YTS with 721.221 targets, 2 hours, vs DMSO
Method: as §3, §4, §5

[5] = tested on: CD19 CAR-bearing NK cells; experiment: Live cell confocal microscopy of lytic granule positioning (LysoTracker Red); type: cell-based; details: ciliobrevin D 50 μM vs DMSO, straight out of culture or 0.5 h post cytokine (IL-2) re-addition
Method: FIG. 19. […] Live cell confocal microscopy of CD19 CAR-bearing NK cells treated with DMSO or ciliobrevin D (50 μM). Lytic granule positioning was tracked using LysoTracker Red. […] The culture medium for CD19 CAR NK cells contains IL-2. […] Quantitative analyses of lytic granule distance from the MTOC are shown as a feature of the degree of granule convergence in […].
as §2

[6] = tested on: eNK cells; experiment: Flow cytometry-based cytotoxicity / bystander killing assay; type: cell-based, human
Method: (§6) Because directed degranulation with converged granules promoted killing efficiency, ciliobrevin D was used to physically prevent convergence in a cell that had received a convergence signal. It was considered that this would allow us to abrogate the killing efficiency benefit imparted by lytic granule convergence. In order to measure killing of both the target and bystander cells in a single experiment, flow cytometry-based cytotoxicity assays were performed, wherein each cell line was labeled with a unique fluorescent dye in the presence of media containing SYTOX Blue viability indicator dye. […] The viability of YTS ([…]), NK92 (FIG. 14E, 14H) and eNK (FIG. 14F, 14I) was not affected by DMSO or ciliobrevin D treatments. […] To ask if it promoted more collateral damage by NK cells 51Cr-labeled Raji cells were added (to serve as innocent bystanders) along with unlabeled 721.221 or K562 target cells. […] YTS or NK92 cells co-cultured with 51Cr-labeled Raji cells in the absence of 721.221 or K562 were unable to kill Raji cells (FIG. 14J). […] Convergence therefore serves to protect innocent bystander cells in complex cellular environments.
(§7) YTS-CD16, NK92-CD16 and eNK cells were labeled with CellTrace CFSE for 10 min at room temperature, washed, and treated with ciliobrevin D or DMSO control as described below in inhibitors. 721.221 and K562 cells were labeled with cell proliferation dye eFluor 670 for 5 min at room temperature. Raji cells were labeled with PKH-26 according to manufacture's protocol. NK cells were then mixed with the corresponding targets and Raji cells at a final volume of 200 μl complete R10 and incubated at 37° C. for 2 hr. Cells were then labeled with SYTOX Blue viability dye for 5 min at room temperature, washed, and run on LSRFortessa flow cytometer (BD).
as §5

[7] = tested on: NK92 cells; experiment: as above; type: cell-based, human
Method: as §6, §7, §5

[8] = tested on: YTS cells; experiment: as above; type: cell-based, human
Method: as §6, §7, §5

## N#CC(C(=O)c1ccc(Cl)cc1Cl)=C1NC(=O)c2ccc(Cl)cc2N1 [ciliobrevin D, 2-(7-chloro-4-oxo-3,4-dihydroquinazolin-2(1H)-ylidene)-3-(2,4-dichlorophenyl)-3-oxopropanenitrile]
[1]
  stimulation-induced lytic granule convergence: blocks stimulation-induced convergence
[1]; listed as Ciliobrevin D
  stimulation-induced lytic granule convergence: dispersed lytic granules
[1]; ciliobrevin D 30 and 100 μM vs untreated
  lytic granule positioning (granule distance from the MTOC): can disperse lytic granules; also recorded: dispersed lytic granules
[2]
  proportion of cells that degranulated (CD107a positive): increased
[3]
  proportion of cells that degranulated (CD107a positive): decreased
[4]
  proportion of cells that degranulated (CD107a positive): decreased
[5]
  stimulation-induced lytic granule convergence: blocks stimulation-induced convergence
[5]; listed as Ciliobrevin D
  stimulation-induced lytic granule convergence: dispersed lytic granules
[6]; eNK against K562, Raji bystander cells added, vs DMSO
  specific lysis of susceptible target cells: no change in killing; also recorded: not affected
[6]; eNK against K562, absence of Raji bystander cells, vs DMSO
  killing of susceptible target cells: did not affect killing; also recorded: not affected
[6]; eNK with K562 inciting targets, vs DMSO
  non-specific lysis (bystander killing) of Raji cells: killing of the bystander Raji cells in a dose-dependent manner; also recorded: increased
[6]; eNK, standard cytotoxicity and bystander killing assays
  viability of NK cells: not affected; also recorded: not different
[7]; NK92, standard cytotoxicity and bystander killing assays
  viability of NK cells: not affected; also recorded: not different
[7]; NK92 against K562, Raji bystander cells added, vs DMSO
  specific lysis of susceptible target cells: no change in killing; also recorded: not affected
[7]; NK92 against K562, absence of Raji bystander cells, vs DMSO
  killing of susceptible target cells: did not affect killing; also recorded: not affected
[7]; NK92 with K562 inciting targets, vs DMSO
  non-specific lysis (bystander killing) of Raji cells: killing of the bystander Raji cells in a dose-dependent manner; also recorded: increased
[8]; YTS against 721.221, Raji bystander cells added, vs DMSO
  specific lysis of susceptible target cells: no change in killing; also recorded: not affected
[8]; YTS against 721.221, absence of Raji bystander cells, vs DMSO
  killing of susceptible target cells: did not affect killing; also recorded: not affected
[8]; YTS with 721.221 inciting targets, vs DMSO
  non-specific lysis (bystander killing) of Raji cells: killing of the bystander Raji cells in a dose-dependent manner; also recorded: increased
[8]; YTS, standard cytotoxicity and bystander killing assays
  viability of NK cells: not affected; also recorded: not different
